# Data published in patent publication US20180265515A1 (Genentech, Inc., priority 2015, published 2018).
# Assays:
# [1] = system: JAK1-dependent STAT6 phosphorylation downstream of IL-13 stimulation in BEAS-2B human bronchial epithelial cells; experiment: JAK1 pathway assay in BEAS-2B cells (IL-13 stimulated STAT6 phosphorylation, MSD); type: cell-based; details: read-out: P-STAT6 BEAS2B + IL13 IC50
# Method: JAK1 Pathway Assay in Cell Lines was Carried Out as Follows:
# Inhibitor potency (EC50) was determined in cell-based assays designed to measure JAK1 dependent STAT phosphorylation. As noted above, inhibition of IL-4, IL-13, and IL-9 signaling by blocking the Jak/Stat signaling pathway can alleviate asthmatic symptoms in pre-clinical lung inflammation models (Mathew et al., 2001, J Exp Med 193(9): 1087-1096; Kudlacz et. al., 2008, Eur J. Pharmacol 582(1-3): 154-161).
# In one assay approach, TF-1 human erythroleukemia cells obtained from the American Type Culture Collection (ATCC; Manassas, Va.) were used to measure JAK1-dependent STAT6 phosphorylation downstream of IL-13 stimulation. Prior to use in the assays, TF-1 cells were starved of GM-CSF overnight in OptiMEM medium (Life Technologies, Grand Island, N.Y.) supplemented with 0.5% charcoal/dextran stripped fetal bovine serum (FBS), 0.1 mM non-essential amino acids (NEAA), and 1 mM sodium pyruvate. The assays were run in 384-well plates in serum-free OptiMEM medium using 300,000 cells per well. In a second assay approach, BEAS-2B human bronchial epithelial cells obtained from ATCC were plated at 100,000 cells per well of a 96-well plate one day prior to the experiment. The BEAS-2B assay was run in complete growth medium (bronchial epithelial basal medium plus bulletkit; Lonza; Basel, Switzerland).
# Test compounds were serially diluted 1:2 in DMSO and then diluted 1:50 in medium just before use. Diluted compounds were added to the cells, for a final DMSO concentration of 0.2%, and incubated for 30 min (for the TF-1 assay) or 1 hr (for the BEAS-2B assay) at 37° C. Then, cells were stimulated with human recombinant cytokine at their respective EC90 concentrations, as previously determined for each individual lot. Cells were stimulated with IL-13 (R&D Systems, Minneapolis, Minn.) for 15 min at 37° C. The TF-1 cell reactions were stopped by the direct addition of 10× lysis buffer (Cell Signaling Technologies, Danvers, Mass.), whereas the BEAS-2B cell incubations were halted by the removal of medium and addition of 1× lysis buffer. The resultant samples were frozen in the plates at −80° C. Compound mediated inhibition of STAT6 phosphorylation was measured in the cell lysates using MesoScale Discovery (MSD) technology (Gaithersburg, Md.). EC50 values were determined as the concentration of compound required for 50% inhibition of STAT phosphorylation relative to that measured for the DMSO control.
# [2] = target: T1, isolated recombinant JAK1 kinase domain (Homo sapiens, UniProt P23458); experiment: JAK1 enzyme assay (Caliper LabChip, Ki); type: biochemical; details: recombinant JAK1 kinase domain, 25 μM ATP
# T1 construct: The activity of the isolated recombinant JAK1 and JAK2 kinase domain was measured
# T1 sequence (P23458 875-1153 limits assumed): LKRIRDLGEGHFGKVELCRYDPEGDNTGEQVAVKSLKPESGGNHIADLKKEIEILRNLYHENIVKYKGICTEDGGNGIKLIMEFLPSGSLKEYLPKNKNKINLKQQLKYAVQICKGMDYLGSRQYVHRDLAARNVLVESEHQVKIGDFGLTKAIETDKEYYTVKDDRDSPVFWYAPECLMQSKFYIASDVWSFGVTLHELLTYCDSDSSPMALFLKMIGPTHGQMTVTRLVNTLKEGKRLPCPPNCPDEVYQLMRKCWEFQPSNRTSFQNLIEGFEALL
# Method: (§1) JAK Enzyme Assays were Carried Out as Follows:
# (§2) The activity of the isolated recombinant JAK1 and JAK2 kinase domain was measured by monitoring phosphorylation of a peptide derived from JAK3 (Val-Ala-Leu-Val-Asp-Gly-Tyr-Phe-Arg-Leu-Thr-Thr, fluorescently labeled on the N-terminus with 5-carboxyfluorescein) using the Caliper LabChip® technology (Caliper Life Sciences, Hopkinton, Mass.). […] Reactions were incubated at 22° C. in 384-well polypropylene microtiter plates for 30 minutes and then stopped by addition of 25 μL of an EDTA containing solution (100 mM HEPES buffer (pH 7.2), 0.015% Brij-35, 150 mM EDTA), resulting in a final EDTA concentration of 50 mM. After termination of the kinase reaction, the proportion of phosphorylated product was determined as a fraction of total peptide substrate using the Caliper LabChip® 3000 according to the manufacturer's specifications. Ki values were then determined using the Morrison tight binding model (Morrison, J. F., Biochim. Biophys. Acta. 185:269-296 (1969); William, J. W. and Morrison, J. F., Meth. Enzymol., 63:437-467 (1979)) modified for ATP-competitive inhibition [Ki=Ki,app/(1+[ATP]/Km,app)].
# [3] = target: T2, isolated recombinant JAK2 kinase domain (Homo sapiens, UniProt O60674); experiment: JAK2 enzyme assay (Caliper LabChip, Ki); type: biochemical; details: 25 μM ATP
# T2 construct: The activity of the isolated recombinant JAK1 and JAK2 kinase domain was measured
# T2 sequence (O60674 849-1124 limits assumed): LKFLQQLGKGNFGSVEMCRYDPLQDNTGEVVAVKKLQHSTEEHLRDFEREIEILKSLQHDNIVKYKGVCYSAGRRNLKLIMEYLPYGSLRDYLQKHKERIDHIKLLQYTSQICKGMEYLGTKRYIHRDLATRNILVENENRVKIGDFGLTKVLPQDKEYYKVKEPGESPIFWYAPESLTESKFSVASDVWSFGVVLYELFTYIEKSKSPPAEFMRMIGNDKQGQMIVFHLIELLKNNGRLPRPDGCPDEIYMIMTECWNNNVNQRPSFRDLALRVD
# Method: as §1, §2
Structure (SMILES),IC50 [1] [nM],Ki [2] [nM],Ki [3] [nM]
"CC(C)Sc1ccc(OC(F)F)c(-c2nn(CC(=O)N3CCC(N4CCO[C@@H](CO)C4)CC3)cc2NC(=O)c2cnn3cccnc23)c1 [Example 155, N-[3-[2-(difluoromethoxy)-5-isopropylsulfanyl-phenyl]-1-[2-[4-[(2R)-2-(hydroxymethyl)morpholin-4-yl]-1-piperidyl]-2-oxo-ethyl]pyrazol-4-yl]pyrazolo[1,5-a]pyrimidine-3-carboxamide]",48,0.31,0.99
"CC(C)Sc1ccc(OC(F)F)c(-c2nn(CC(=O)N3CCN(C4CCN(CC(=O)N(C)C)CC4)CC3)cc2NC(=O)c2cnn3cccnc23)c1 [Example 142, N-[3-[2-(difluoromethoxy)-5-isopropylsulfanyl-phenyl]-1-[2-[4-[1-[2-(dimethylamino)-2-oxo-ethyl]-4-piperidyl]piperazin-1-yl]-2-oxo-ethyl]pyrazol-4-yl]pyrazolo[1,5-a]pyrimidine-3-carboxamide]",110,0.88,2
"N#CC1(CNC2CCN(C(=O)Cn3cc(NC(=O)c4cnn5cccnc45)c(-c4cc(SC5COC5)ccc4OC(F)F)n3)CC2)CC1 [Example 189, N-[1-[2-[4-[(1-cyanocyclopropyl)methylamino]-1-piperidyl]-2-oxo-ethyl]-3-[2-(difluoromethoxy)-5-(oxetan-3-ylsulfanyl)phenyl]pyrazol-4-yl]pyrazolo[1,5-a]pyrimidine-3-carboxamide]",770,1,3
"CSc1ccc(OC(F)F)c(-c2nn(CC(=O)N3CCN(CCCC#N)CC3)cc2NC(=O)c2cnn3cccnc23)c1 [Example 21, N-[1-[2-[4-(3-cyanopropyl)piperazin-1-yl]-2-oxo-ethyl]-3-[2-(difluoromethoxy)-5-methylsulfanyl-phenyl]pyrazol-4-yl]pyrazolo[1,5-a]pyrimidine-3-carboxamide]",9.1,0.27,0.33
"CC(C)Sc1ccc(OC(F)F)c(-c2nn(CC(=O)N3CCC(C(=O)N4CCNCC4)CC3)cc2NC(=O)c2cnn3cccnc23)c1 [Example 151, N-[3-[2-(difluoromethoxy)-5-isopropylsulfanyl-phenyl]-1-[2-oxo-2-[4-(piperazine-1-carbonyl)-1-piperidyl]ethyl]pyrazol-4-yl]pyrazolo[1,5-a]pyrimidine-3-carboxamide]",960,0.54,2.3
"CC(C)Sc1ccc(OC(F)F)c(-c2nn(CC(=O)N3CCN(C)CC3)cc2NC(=O)c2cnn3cccnc23)c1 [Example 117, N-[3-[2-(difluoromethoxy)-5-isopropylsulfanyl-phenyl]-1-[2-(4-methylpiperazin-1-yl)-2-oxo-ethyl]pyrazol-4-yl]pyrazolo[1,5-a]pyrimidine-3-carboxamide]",21,0.7,1.4
"CSc1ccc(OC(F)F)c(-c2nn(CC(=O)N3CCC(NCCC#N)CC3)cc2NC(=O)c2cnn3cccnc23)c1 [Example 8, N-[1-[2-[4-(2-cyanoethylamino)-1-piperidyl]-2-oxo-ethyl]-3-[2-(difluoromethoxy)-5-methylsulfanyl-phenyl]pyrazol-4-yl]pyrazolo[1,5-a]pyrimidine-3-carboxamide]",18,0.29,0.39
"CSc1ccc(OC(F)F)c(-c2nn(CC(=O)N3CCC(N4CCO[C@@H](CO)C4)CC3)cc2NC(=O)c2cnn3cccnc23)c1 [Example 86, N-[3-[2-(difluoromethoxy)-5-methylsulfanyl-phenyl]-1-[2-[4-[(2R)-2-(hydroxymethyl)morpholin-4-yl]-1-piperidyl]-2-oxo-ethyl]pyrazol-4-yl]pyrazolo[1,5-a]pyrimidine-3-carboxamide]",120,0.31,0.42
"CSc1ccc(OC(F)F)c(-c2nn(CC(=O)N3CCC(CN4C[C@@H](C)N(CC(=O)N(C)C)C[C@@H]4C)CC3)cc2NC(=O)c2cnn3cccnc23)c1 [Example 98, N-[3-[2-(difluoromethoxy)-5-methylsulfanyl-phenyl]-1-[2-[4-[[(2S,5R)-4-[2-(dimethylamino)-2-oxo-ethyl]-2,5-dimethyl-piperazin-1-yl]methyl]-1-piperidyl]-2-oxo-ethyl]pyrazol-4-yl]pyrazolo[1,5-a]pyrimidine-3-carboxamide]",37,0.64,1.2
"CSc1ccc(OC(F)F)c(-c2nn(CC(=O)N3CCC(N(C)CC(C)(C)C#N)CC3)cc2NC(=O)c2cnn3cccnc23)c1 [Example 26, N-[1-[2-[4-[(2-cyano-2-methyl-propyl)-methyl-amino]-1-piperidyl]-2-oxo-ethyl]-3-[2-(difluoromethoxy)-5-methylsulfanyl-phenyl]pyrazol-4-yl]pyrazolo[1,5-a]pyrimidine-3-carboxamide]",12,0.24,0.39
"CSc1ccc(OC(F)F)c(-c2nn(CC(=O)N3CCC(N(C)CC(=O)N4CCC4)CC3)cc2NC(=O)c2cnn3cccnc23)c1 [Example 22, N-[1-[2-[4-[[2-(azetidin-1-yl)-2-oxo-ethyl]-methyl-amino]-1-piperidyl]-2-oxo-ethyl]-3-[2-(difluoromethoxy)-5-methylsulfanyl-phenyl]pyrazol-4-yl]pyrazolo[1,5-a]pyrimidine-3-carboxamide]",130,0.32,0.62
"CSc1ccc(OC(F)F)c(-c2nn(CC(=O)N3C[C@@H]4CCN[C@@H]4C3)cc2NC(=O)c2cnn3cccnc23)c1 [Example 56, N-[1-[2-[(3aS,6aS)-2,3,3a,4,6,6a-hexahydro-1H-pyrrolo[2,3-c]pyrrol-5-yl]-2-oxo-ethyl]-3-[2-(difluoromethoxy)-5-methylsulfanyl-phenyl]pyrazol-4-yl]pyrazolo[1,5-a]pyrimidine-3-carboxamide]",84,0.41,0.48
"CSc1ccc(OC(F)F)c(-c2nn(C3(CC#N)CN(C(=O)OC(C)(C)C)C3)cc2NC(=O)c2cnn3cccnc23)c1 [Example 78, tert-butyl 3-(cyanomethyl)-3-[3-[2-(difluoromethoxy)-5-methylsulfanyl-phenyl]-4-(pyrazolo[1,5-a]pyrimidine-3-carbonylamino)pyrazol-1-yl]azetidine-1-carboxylate]",69,0.92,0.72
"CSc1ccc(OC(F)F)c(-c2nn(CC(=O)N3CCC(N(C)CC(=O)N(C)C)CC3)cc2NC(=O)c2cnn3cccnc23)c1 [Example 13, N-[3-[2-(difluoromethoxy)-5-methylsulfanyl-phenyl]-1-[2-[4-[[2-(dimethylamino)-2-oxo-ethyl]-methyl-amino]-1-piperidyl]-2-oxo-ethyl]pyrazol-4-yl]pyrazolo[1,5-a]pyrimidine-3-carboxamide]",57,0.44,0.9
"CSc1ccc(OC(F)F)c(-c2nn(CC(=O)N3CCN(CC4CCN(CC(=O)N(C)C)CC4)CC3)cc2NC(=O)c2cnn3cccnc23)c1 [Example 33, N-[3-[2-(difluoromethoxy)-5-methylsulfanyl-phenyl]-1-[2-[4-[[1-[2-(dimethylamino)-2-oxo-ethyl]-4-piperidyl]methyl]piperazin-1-yl]-2-oxo-ethyl]pyrazol-4-yl]pyrazolo[1,5-a]pyrimidine-3-carboxamide]",35,0.38,0.73
